Test results taken from PMC11849186 (BMC Biology, 2025).

Assays:
[1] = molecular target: T1, Pheromone binding protein 5 (Pbp5) (Bactrocera dorsalis, UniProt A0A6I9V7R6); experiment: direct fluorescence binding assay
T1 sequence (A0A6I9V7R6 21-147): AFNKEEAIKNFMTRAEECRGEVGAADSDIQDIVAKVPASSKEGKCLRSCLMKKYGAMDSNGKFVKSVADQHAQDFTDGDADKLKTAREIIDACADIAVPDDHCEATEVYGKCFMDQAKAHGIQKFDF

[2] = molecular target: T2, Pheromone binding protein 5 (Pbp5) mutant (Bactrocera dorsalis, UniProt A0A6I9V7R6, F147A/F31A/F95A/I28A); experiment: direct fluorescence binding assay
T2 sequence (A0A6I9V7R6 21-147 I28A/F31A/F95A/F147A): T1 sequence (A0A6I9V7R6 21-147)

[3] = molecular target: T1, Pheromone binding protein 5 (Pbp5); experiment: competitive fluorescence displacement of 1-NPN

Structure (SMILES) | Kd [1] [µM] | Kd [2] [µM] | Ki [3] [µM]
c1ccc(Nc2cccc3ccccc23)cc1 [1-NPN, N-phenyl-1-naphthylamine] | 10.6 | 33.9 | –
Cc1cnc(C)c(C)n1 [TMP, trimethylpyrazine] | – | – | 0.224
Cc1nc(C)c(C)nc1C [TTMP, tetramethylpyrazine] | – | – | 0.21
